In ChEMBL document CHEMBL1139219, “Synthesis and biological evaluation of quinoline salicylic acids as P-selectin antagonists” (J Med Chem, 2007):
Calls of active or inactive are those of the source. The rule behind the calls is not given here.

Tests used:
HUVEC = assay: Inhibition of neutrophil adhesion to IL4-stimulated HUVEC by leukocyte rolling assay; type: functional, cell-based; conditions: Homo sapiens
[1] = target: Dihydroorotate dehydrogenase (quinone), mitochondrial (Homo sapiens, UniProt Q02127)
Description: Inhibition of human recombinant DHOD expressed in Escherichia coli

Rattus norvegicus [2] = assay: Inhibition of carrageenan-induced paw edema in Sprague-Dawley rat at 5 mg/kg, po; type: functional
Cytochrome P450 3A4 = Cytochrome P450 3A4 (Homo sapiens, UniProt P08684); assay: Inhibition of human CYP3A4; type: ADME
Cytochrome P450 2A6 = target: T1, Cytochrome P450 2A6 (Homo sapiens, UniProt P11509); assay: Inhibition of human CYP2A6; type: ADME
T1 sequence (P11509 whole entry): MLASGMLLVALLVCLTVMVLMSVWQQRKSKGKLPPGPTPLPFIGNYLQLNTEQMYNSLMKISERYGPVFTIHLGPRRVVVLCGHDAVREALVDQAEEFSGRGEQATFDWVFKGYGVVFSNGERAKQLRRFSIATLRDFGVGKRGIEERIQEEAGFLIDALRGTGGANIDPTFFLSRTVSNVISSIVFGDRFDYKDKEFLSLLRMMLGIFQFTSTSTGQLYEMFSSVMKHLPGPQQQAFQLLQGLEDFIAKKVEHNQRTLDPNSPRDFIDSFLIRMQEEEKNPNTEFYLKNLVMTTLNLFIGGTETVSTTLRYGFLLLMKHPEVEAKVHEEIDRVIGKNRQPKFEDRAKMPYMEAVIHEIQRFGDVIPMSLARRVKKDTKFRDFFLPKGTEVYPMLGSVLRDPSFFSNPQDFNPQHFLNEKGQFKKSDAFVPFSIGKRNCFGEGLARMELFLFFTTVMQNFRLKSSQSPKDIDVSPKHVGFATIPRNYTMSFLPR

Cytochrome P450 2C19 = Cytochrome P450 2C19 (Homo sapiens, UniProt P33261); assay: Inhibition of human CYP2C19; type: ADME
Rattus norvegicus [3] = assay: Inhibition of carrageenan-induced paw edema in Sprague-Dawley rat at 0.5 mg/kg, po; type: functional
Cytochrome P450 2C9 = Cytochrome P450 2C9 (Homo sapiens, UniProt P11712); assay: Inhibition of human CYP2C9; type: ADME
Rattus norvegicus [4] = assay: Inhibition of carrageenan-induced paw edema in Sprague-Dawley rat at 1 mg/kg, po; type: functional
Cytochrome P450 1A2 = target: T2, Cytochrome P450 1A2 (Homo sapiens, UniProt P05177); assay: Inhibition of human CYP1A2; type: ADME
T2 sequence (P05177 whole entry): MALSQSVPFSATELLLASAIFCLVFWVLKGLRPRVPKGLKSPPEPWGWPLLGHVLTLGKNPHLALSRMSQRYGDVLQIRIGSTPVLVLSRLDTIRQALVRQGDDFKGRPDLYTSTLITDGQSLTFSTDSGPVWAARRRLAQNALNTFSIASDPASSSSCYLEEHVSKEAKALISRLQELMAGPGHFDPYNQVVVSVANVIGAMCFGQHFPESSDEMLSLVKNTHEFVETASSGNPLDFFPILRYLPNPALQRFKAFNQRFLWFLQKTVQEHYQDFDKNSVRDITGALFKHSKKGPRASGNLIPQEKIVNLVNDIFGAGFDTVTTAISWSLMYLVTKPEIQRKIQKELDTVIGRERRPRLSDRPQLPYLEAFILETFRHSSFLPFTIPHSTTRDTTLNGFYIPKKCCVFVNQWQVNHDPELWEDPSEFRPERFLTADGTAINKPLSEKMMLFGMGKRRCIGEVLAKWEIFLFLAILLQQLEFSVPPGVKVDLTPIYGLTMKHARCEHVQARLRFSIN

Rattus norvegicus [5] = assay: Inhibition of carrageenan-induced paw edema in Sprague-Dawley rat at 10 mg/kg, po; type: functional
Rattus norvegicus [6] = assay: Plasma concentration in Lewis rat Freund's complete adjuvant-induced arthritis model at 10 mg/kg, po; type: ADME, organism-based; design: dose 10 mg/kg, route oral; conditions: in vivo
[7] = Clearance in Sprague-Dawley rat at 1 mg/kg, iv; type: ADME, organism-based; design: dose 1 mg/kg, route intravenous; conditions: in vivo
[8] = AUC in Sprague-Dawley rat at 1 mg/kg, iv; type: ADME, organism-based; design: dose 1 mg/kg, route intravenous; conditions: plasma
Rattus norvegicus [9] = assay: Inhibition of carrageenan-induced paw edema in Sprague-Dawley rat at 50 mg/kg, po; type: functional
[10] = Cmax in Sprague-Dawley rat at 1 mg/kg, iv; type: ADME, organism-based; design: dose 1 mg/kg, route intravenous; conditions: in vivo
Cytochrome P450 2C8 = target: T3, Cytochrome P450 2C8 (Homo sapiens, UniProt P10632); assay: Inhibition of human CYP2C8; type: ADME
T3 sequence (P10632 whole entry): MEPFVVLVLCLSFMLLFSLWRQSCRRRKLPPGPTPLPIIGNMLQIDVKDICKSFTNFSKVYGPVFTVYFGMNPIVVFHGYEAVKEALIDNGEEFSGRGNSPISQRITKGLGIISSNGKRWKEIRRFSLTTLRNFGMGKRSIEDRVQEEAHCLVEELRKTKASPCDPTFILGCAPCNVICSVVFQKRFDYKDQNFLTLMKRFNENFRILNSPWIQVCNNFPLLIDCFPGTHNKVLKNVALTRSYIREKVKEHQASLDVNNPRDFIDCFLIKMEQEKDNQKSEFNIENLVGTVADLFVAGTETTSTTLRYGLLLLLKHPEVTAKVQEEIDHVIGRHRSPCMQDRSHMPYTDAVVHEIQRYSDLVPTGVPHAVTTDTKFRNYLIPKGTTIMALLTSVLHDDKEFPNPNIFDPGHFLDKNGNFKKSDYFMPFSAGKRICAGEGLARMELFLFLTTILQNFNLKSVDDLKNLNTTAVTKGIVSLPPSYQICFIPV

Rattus norvegicus [11] = species on record: Rattus norvegicus; assay: Toxicity in Lewis rat Freund's complete adjuvant-induced arthritis model; type: organism-based; conditions: in vivo
Cytochrome P450 2D6 = Cytochrome P450 2D6 (Homo sapiens, UniProt P10635); assay: Inhibition of human CYP2D6; type: ADME
[12] = target: P-selectin (Homo sapiens) (UniProt P16109); assay: Inhibition of human recombinant P-selectin expressed in CHO cells by Biacore assay at 250 uM
Rattus norvegicus [13] = assay: Inhibition of Freund's complete adjuvant-induced arthritis in Lewis rat at 5 mg/kg, po; type: functional, organism-based; design: dose 5 mg/kg
[14] = target: P-selectin (Homo sapiens) (UniProt P16109); assay: Inhibition of human recombinant P-selectin expressed in CHO cells by Biacore assay at 2 mM

Chain of Dihydroorotate dehydrogenase (quinone), mitochondrial (Q02127 whole entry): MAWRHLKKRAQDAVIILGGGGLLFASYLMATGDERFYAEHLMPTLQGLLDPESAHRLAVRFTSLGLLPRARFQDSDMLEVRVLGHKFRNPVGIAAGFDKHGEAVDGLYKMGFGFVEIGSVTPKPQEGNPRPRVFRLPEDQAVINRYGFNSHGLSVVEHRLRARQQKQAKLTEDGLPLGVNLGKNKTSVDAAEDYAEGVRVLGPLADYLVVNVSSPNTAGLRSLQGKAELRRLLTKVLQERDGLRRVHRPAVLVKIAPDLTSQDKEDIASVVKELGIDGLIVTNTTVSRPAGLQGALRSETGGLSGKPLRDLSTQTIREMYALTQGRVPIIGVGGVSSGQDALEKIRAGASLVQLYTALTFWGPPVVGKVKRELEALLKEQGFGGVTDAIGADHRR
Chain of P-selectin (Homo sapiens) (P16109 whole entry, looked up): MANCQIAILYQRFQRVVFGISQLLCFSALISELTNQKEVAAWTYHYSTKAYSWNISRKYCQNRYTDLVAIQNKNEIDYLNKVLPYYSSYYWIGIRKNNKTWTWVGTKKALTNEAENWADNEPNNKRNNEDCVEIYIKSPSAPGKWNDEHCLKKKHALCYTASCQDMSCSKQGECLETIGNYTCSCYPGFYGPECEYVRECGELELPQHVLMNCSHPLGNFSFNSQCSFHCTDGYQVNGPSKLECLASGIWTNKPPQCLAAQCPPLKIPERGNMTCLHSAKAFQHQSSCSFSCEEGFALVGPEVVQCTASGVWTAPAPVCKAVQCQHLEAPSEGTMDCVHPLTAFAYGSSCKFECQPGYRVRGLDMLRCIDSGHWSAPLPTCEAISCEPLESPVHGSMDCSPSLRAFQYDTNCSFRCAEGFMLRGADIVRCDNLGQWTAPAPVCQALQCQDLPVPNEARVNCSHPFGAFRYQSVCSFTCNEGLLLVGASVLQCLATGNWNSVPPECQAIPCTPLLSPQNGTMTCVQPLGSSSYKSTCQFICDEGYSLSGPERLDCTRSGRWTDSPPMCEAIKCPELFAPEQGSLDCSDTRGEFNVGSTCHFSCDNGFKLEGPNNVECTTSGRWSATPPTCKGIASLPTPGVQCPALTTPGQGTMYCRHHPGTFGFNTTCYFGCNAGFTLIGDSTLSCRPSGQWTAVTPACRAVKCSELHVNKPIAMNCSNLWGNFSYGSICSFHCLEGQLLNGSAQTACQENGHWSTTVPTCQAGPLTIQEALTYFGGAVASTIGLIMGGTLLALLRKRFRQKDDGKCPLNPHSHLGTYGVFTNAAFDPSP
Chain of Cytochrome P450 3A4 (P08684 whole entry): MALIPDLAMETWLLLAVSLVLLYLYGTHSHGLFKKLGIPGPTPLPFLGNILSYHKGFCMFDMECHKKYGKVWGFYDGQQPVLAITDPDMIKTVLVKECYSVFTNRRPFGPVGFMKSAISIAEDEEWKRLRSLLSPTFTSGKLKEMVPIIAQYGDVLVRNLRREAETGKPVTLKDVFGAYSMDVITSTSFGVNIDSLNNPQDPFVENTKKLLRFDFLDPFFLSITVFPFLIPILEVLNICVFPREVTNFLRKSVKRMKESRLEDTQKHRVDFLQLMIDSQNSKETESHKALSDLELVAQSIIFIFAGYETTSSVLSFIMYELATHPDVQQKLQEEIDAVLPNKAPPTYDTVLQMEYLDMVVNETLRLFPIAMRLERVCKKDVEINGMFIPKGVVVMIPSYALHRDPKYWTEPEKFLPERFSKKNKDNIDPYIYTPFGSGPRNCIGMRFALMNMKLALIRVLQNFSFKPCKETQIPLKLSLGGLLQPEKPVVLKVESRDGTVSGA
Chain of Cytochrome P450 2C9 (P11712 whole entry): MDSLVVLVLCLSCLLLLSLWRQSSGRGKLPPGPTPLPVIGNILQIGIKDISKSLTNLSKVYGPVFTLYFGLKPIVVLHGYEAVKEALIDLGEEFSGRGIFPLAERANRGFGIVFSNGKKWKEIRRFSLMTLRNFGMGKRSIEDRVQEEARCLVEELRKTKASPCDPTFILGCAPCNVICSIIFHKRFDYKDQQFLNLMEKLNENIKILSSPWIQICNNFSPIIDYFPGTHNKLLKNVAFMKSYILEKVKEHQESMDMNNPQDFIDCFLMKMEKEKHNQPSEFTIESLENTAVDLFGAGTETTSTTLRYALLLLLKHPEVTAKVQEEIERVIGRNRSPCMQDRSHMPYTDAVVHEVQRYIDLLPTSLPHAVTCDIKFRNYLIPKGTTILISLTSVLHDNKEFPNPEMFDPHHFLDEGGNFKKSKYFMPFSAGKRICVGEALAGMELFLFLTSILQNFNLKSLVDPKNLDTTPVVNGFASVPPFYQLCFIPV
Chain of Cytochrome P450 2D6 (P10635 whole entry): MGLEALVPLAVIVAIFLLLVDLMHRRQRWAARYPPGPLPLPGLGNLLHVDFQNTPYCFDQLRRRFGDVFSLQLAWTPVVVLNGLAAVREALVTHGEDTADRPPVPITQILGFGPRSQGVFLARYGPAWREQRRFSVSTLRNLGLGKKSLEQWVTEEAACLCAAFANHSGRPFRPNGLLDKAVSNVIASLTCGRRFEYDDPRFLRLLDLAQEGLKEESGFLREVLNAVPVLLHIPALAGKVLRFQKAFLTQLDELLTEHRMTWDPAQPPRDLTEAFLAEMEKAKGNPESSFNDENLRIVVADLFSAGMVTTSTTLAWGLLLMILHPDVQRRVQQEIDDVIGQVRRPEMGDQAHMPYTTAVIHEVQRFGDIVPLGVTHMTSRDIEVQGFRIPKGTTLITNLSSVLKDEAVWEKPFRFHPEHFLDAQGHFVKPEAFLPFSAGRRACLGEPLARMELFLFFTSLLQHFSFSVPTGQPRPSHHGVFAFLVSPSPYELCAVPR
Chain of Cytochrome P450 2C19 (P33261 whole entry): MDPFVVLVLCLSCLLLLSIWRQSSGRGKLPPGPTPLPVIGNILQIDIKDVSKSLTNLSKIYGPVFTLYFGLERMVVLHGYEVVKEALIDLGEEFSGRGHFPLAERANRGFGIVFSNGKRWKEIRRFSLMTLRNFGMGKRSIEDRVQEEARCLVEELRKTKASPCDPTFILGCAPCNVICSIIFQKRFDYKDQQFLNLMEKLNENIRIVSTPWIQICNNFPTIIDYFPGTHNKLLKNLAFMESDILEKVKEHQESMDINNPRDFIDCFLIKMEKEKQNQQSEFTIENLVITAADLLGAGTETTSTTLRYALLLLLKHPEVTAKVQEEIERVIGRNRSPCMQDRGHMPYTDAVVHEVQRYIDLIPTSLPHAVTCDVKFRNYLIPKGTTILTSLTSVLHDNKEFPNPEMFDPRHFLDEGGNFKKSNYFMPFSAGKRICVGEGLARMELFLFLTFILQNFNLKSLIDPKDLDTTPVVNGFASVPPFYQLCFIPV

**Q.** With Cc1ccc2c(C(=O)O)c(O)c(-c3cccc(OC(F)(F)F)c3)nc2c1C as the molecule, how does the IC50 (HUVEC) read?
**A.** 5 µM

**Q.** For Cc1ccc2c(C(=O)O)c(O)c(-c3ccc(C(C)C)cc3)nc2c1C, which IC50 (HUVEC) is on record?
**A.** 8 µM

**Q.** For COc1ccc2c(C(=O)O)c(O)c(-c3ccc(Cl)cc3)nc2c1, which IC50 [1] is on record?
**A.** 151 µM

**Q.** With O=C(O)c1c(O)c(-c2ccc(Cl)cc2)nc2ccc(-c3ccsc3)cc12 as the molecule, how does the IC50 [1] read?
**A.** 134 µM

**Q.** Which inhibition in vivo at 5 mg/kg (Rattus norvegicus [2]) does the source give for Cc1ccc2c(C(=O)O)c(O)c(-c3ccc(Cl)cc3)nc2c1C here?
**A.** 10.3%

**Q.** What about the IC50 (Cytochrome P450 3A4) of the same molecule?
**A.** 7 µM

**Q.** And the IC50 (Cytochrome P450 2A6)?
**A.** 20 µM

**Q.** What about the IC50 (Cytochrome P450 2C19) of the same molecule?
**A.** 1 µM

**Q.** What about the inhibition in vivo at 0.5 mg/kg (Rattus norvegicus [3]) of the same molecule?
**A.** 10.8%

**Q.** What about the IC50 (Cytochrome P450 2C9) of the same molecule?
**A.** 2 µM

**Q.** And the inhibition in vivo at 1 mg/kg (Rattus norvegicus [4])?
**A.** 12.8%

**Q.** What about the IC50 (Cytochrome P450 1A2) of the same molecule?
**A.** 4 µM

**Q.** What about the inhibition in vivo at 10 mg/kg (Rattus norvegicus [5]) of the same molecule?
**A.** 14.1%

**Q.** And the concentration (Rattus norvegicus [6])?
**A.** 1.8 µM

**Q.** And the clearance [7]?
**A.** 6.2 mL/min/kg

**Q.** What about the AUC [8] of the same molecule?
**A.** 7.68 µM·h

**Q.** And the IC50 (HUVEC)?
**A.** 10 µM

**Q.** And the inhibition in vivo at 50 mg/kg (Rattus norvegicus [9])?
**A.** 15.6%

**Q.** What about the Cmax [10] of the same molecule?
**A.** 13 µM

**Q.** What about the IC50 (Cytochrome P450 2C8) of the same molecule?
**A.** 9 µM

**Q.** And the Activity (Rattus norvegicus [11])?
**A.** Non-toxic

**Q.** What about the IC50 (Cytochrome P450 2D6) of the same molecule?
**A.** 17 µM

**Q.** With COc1ccc(-c2ccc3nc(-c4ccc(Cl)cc4)c(O)c(C(=O)O)c3c2)cc1 as the molecule, how does the inhibition [12] read?
**A.** 39%

**Q.** Which IC50 (HUVEC) does the source give for CCN(CC)c1ccc(-c2nc3c(C)c(C)ccc3c(C(=O)O)c2O)cc1 here?
**A.** 19 µM

**Q.** For CN(C)c1ccc(-c2cccc3c(C(=O)O)c(O)c(-c4ccc(Cl)cc4)nc23)cc1, which IC50 (HUVEC) is on record?
**A.** 20 µM

**Q.** Which IC50 (HUVEC) does the source give for Cc1cccc2c(C(=O)O)c(O)c(-c3ccc(Cl)cc3)nc12 here?
**A.** 13 µM

**Q.** What about the IC50 [1] of the same molecule?
**A.** 212 µM

**Q.** What does the source list for O=C(O)c1c(O)c(-c2ccc(Cl)cc2)nc2c(Br)cccc12?
**A.** IC50 (HUVEC): 20 µM; IC50 [1]: 132 µM

**Q.** Which IC50 (HUVEC) does the source give for O=C(O)c1c(O)c(-c2ccc(Cl)cc2)nc2c(C(F)(F)F)cccc12 here?
**A.** 13 µM

**Q.** What about the IC50 [1] of the same molecule?
**A.** 136 µM

**Q.** With Cc1ccc2c(C(=O)O)c(O)c(-c3ccc(Br)cc3)nc2c1C as the molecule, how does the clearance [7] read?
**A.** 6.2 mL/min/kg

**Q.** What about the AUC [8] of the same molecule?
**A.** 6.52 µM·h

**Q.** And the IC50 (HUVEC)?
**A.** 6 µM

**Q.** What about the Cmax [10] of the same molecule?
**A.** 5.5 µM

**Q.** Which Activity (Rattus norvegicus [13]) does the source give for Cc1ccc(-c2cc(C(F)(F)F)nn2-c2ccc(S(N)(=O)=O)cc2)cc1 here?
**A.** Active

**Q.** Which IC50 [1] does the source give for O=C(O)c1c(O)c(-c2ccc(Cl)cc2)nc2ccc(-c3ccccc3)cc12 here?
**A.** 230 µM

**Q.** For O=C(O)c1ccc(-c2ccc3nc(-c4ccc(Cl)cc4)c(O)c(C(=O)O)c3c2)cc1, which IC50 [1] is on record?
**A.** 135 µM

**Q.** With CCC(C)c1cccc2c(C(=O)O)c(O)c(-c3ccc(Cl)cc3)nc12 (centres undefined) as the molecule, how does the clearance [7] read?
**A.** 13.3 mL/min/kg

**Q.** And the AUC [8]?
**A.** 3.45 µM·h

**Q.** What about the IC50 (HUVEC) of the same molecule?
**A.** 3 µM

**Q.** And the Cmax [10]?
**A.** 6.7 µM

**Q.** And the IC50 [1]?
**A.** 301 µM

**Q.** With O=C(O)c1c(O)c(-c2ccc(Cl)cc2)nc2ccc(Cl)cc12 as the molecule, how does the inhibition [14] read?
**A.** 38%
